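Growth conditions: 96-well plates. Treatment: test compound, 48 hours, 5 concentrations. Analysis: linear interpolation between bracketing concentrations; unreached endpoints set to highest concentration. The concentration for 50% growth inhibition is given as GI50. At the TGI there is no net growth.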
Experiments:
Test in all cases: growth of human tumour cells (NCI), 48 h
A549 NSCLC = system: A549 NSCLC
ACHN renal = system: ACHN renal
HCT-15 colon = system: HCT-15 colon
HL-60(TB) leukemia = system: HL-60(TB) leukemia
HOP-92 NSCLC = system: HOP-92 NSCLC
HT29 colon = system: HT29 colon
K-562 leukemia = system: K-562 leukemia
KM12 colon = system: KM12 colon
LOX IMVI melanoma = system: LOX IMVI melanoma
MDA-MB-435 = system: MDA-MB-435
MDA-N = system: MDA-N
OVCAR-8 ovarian = system: OVCAR-8 ovarian
SF-268 CNS = system: SF-268 CNS
U251 CNS = system: U251 CNS
UACC-257 melanoma = system: UACC-257 melanoma
UO-31 renal = system: UO-31 renal
HS 578T breast = system: HS 578T breast
MDA-MB-231 breast = system: MDA-MB-231 breast
SF-295 CNS = system: SF-295 CNS

Row | Compound | TGI (A549 NSCLC) [µM] | TGI (ACHN renal) [µM] | TGI (HCT-15 colon) [µM] | TGI (HL-60(TB) leukemia) [µM] | TGI (HOP-92 NSCLC) [µM] | TGI (HT29 colon) [µM] | TGI (K-562 leukemia) [µM] | TGI (KM12 colon) [µM] | TGI (LOX IMVI melanoma) [µM] | TGI (MDA-MB-435) [µM] | TGI (MDA-N) [µM] | TGI (OVCAR-8 ovarian) [µM] | TGI (SF-268 CNS) [µM] | TGI (U251 CNS) [µM] | TGI (UACC-257 melanoma) [µM] | TGI (UO-31 renal) [µM] | TGI (HS 578T breast) [µM] | TGI (MDA-MB-231 breast) [µM] | TGI (SF-295 CNS) [µM] | GI50 (HL-60(TB) leukemia) [µM]
1 | O=C(NCCCNC(=O)c1ccc2cc(O)c(O)cc2c1)c1ccc2cc(O)c(O)cc2c1 | > 100 | > 100 | > 100 | 59.7 | 48 | 81.2 | > 100 | > 100 | 67.4 | > 100 | > 100 | > 100 | > 100 | > 100 | > 100 | > 100 | – | – | – | –
2 | C[N+](C)(N)CCC[N+](C)(C)N | > 100 | > 100 | > 100 | > 100 | > 100 | > 100 | > 100 | > 100 | > 100 | > 100 | > 100 | > 100 | > 100 | > 100 | > 100 | > 100 | > 100 | > 100 | > 100 | –
3 | CC(=O)OC[C@H]1[C@@H]2C(CC[C@]13CO3)OC(=O)CC(C)[C@]2(C)CCc1ccoc1 (some centres not stated) | > 100 | > 100 | > 100 | > 100 | > 100 | > 100 | > 100 | > 100 | > 100 | > 100 | > 100 | > 100 | > 100 | > 100 | > 100 | > 100 | > 100 | > 100 | > 100 | –
4 | COc1ccc(-c2c(C#N)c(NC(=S)NC(=O)c3ccccc3)nc3c2CCCC3)cc1OC | > 100 | > 100 | > 100 | > 100 | – | > 100 | > 100 | > 100 | > 100 | > 100 | > 100 | > 100 | > 100 | > 100 | > 100 | > 100 | > 100 | > 100 | > 100 | –
5 | CN(CCCNc1ccc2ncn3c4ccccc4c(=O)c1c23)CCCN1C(=O)c2cccc3cc([N+](=O)[O-])cc(c23)C1=O | 0.126 | 1.21 | 0.326 | – | 6.39 | 0.0155 | 0.398 | 1.36 | – | 2.13 | 2.01 | 1.86 | 2.28 | 0.133 | 2.1 | 2.26 | 2.42 | 1.26 | 1.42 | 0.191
6 | CN(C)CC(CN(C)C)c1ccccn1 | > 100 | > 100 | > 100 | > 100 | > 100 | > 100 | > 100 | > 100 | > 100 | > 100 | > 100 | > 100 | > 100 | > 100 | > 100 | > 100 | > 100 | > 100 | > 100 | –
7 | NCCc1nc(-c2nc(C(=O)O)cs2)cs1 | > 100 | > 100 | > 100 | > 100 | > 100 | > 100 | > 100 | > 100 | > 100 | > 100 | > 100 | > 100 | > 100 | > 100 | > 100 | > 100 | > 100 | > 100 | > 100 | –
8 | CC[C@@H]1/C=C/C=C/C[C@H](C)[C@@H](O)[C@](C)(O)C(=O)[C@H](C)[C@@H](O)[C@H](C)C(=O)[C@H](C)[C@@H](O)[C@H](C)/C=C/C(=O)O[C@H]2[C@@H](C)[C@@H](CC1)O[C@]1(O[C@H](CC(C)O)[C@H](C)CC1=O)[C@@H]2C (some centres not stated) | > 16.2 | 9.19 | > 21.2 | 11.4 | 9.98 | 8.78 | 14.5 | 13 | 9.2 | 10.6 | 10.7 | > 25 | 7.93 | 11.9 | 3.54 | > 20.4 | > 18.5 | 8.47 | 0.114 | –

Reference: PubChem BioAssay (NCI)
